ChEMBL document CHEMBL3734723, “Synthesis and anticancer activity of 6-heteroarylcoumarins” (2015)

What was measured:
Type in all cases: functional
U-251 = assay: Cytotoxicity against human U251 cells assessed as cell growth at 10 uM incubated for 48 hrs by sulforhodamine B assay; details: U-251, 48 h, read-out: Activity
T47D = assay: Cytotoxicity against human T47D cells assessed as cell growth at 10 uM incubated for 48 hrs by sulforhodamine B assay; details: read-out: Activity
[1] = Growth inhibition of human colon cancer cells after 48 hrs by sulforhodamine B assay; details: Cancer cell lines; for CC50: read-out: LC50 (the source's name)
ACHN = assay: Growth inhibition of human ACHN cells incubated for 48 hrs by sulforhodamine B assay; details: for CC50: read-out: LC50 (the source's name)
[2] = Growth inhibition of human melanoma cells after 48 hrs by sulforhodamine B assay; details: Melanoma cell; for CC50: read-out: LC50 (the source's name)
NCI-H522 = assay: Growth inhibition of human NCI-H522 cells incubated for 48 hrs by sulforhodamine B assay; details: NCI-H522, 48 h; for CC50: read-out: LC50 (the source's name)
EKVX = assay: Cytotoxicity against human EKVX cells assessed as cell growth at 10 uM incubated for 48 hrs by sulforhodamine B assay; details: read-out: Activity
M14 [3] = assay: Growth inhibition of human M14 cells incubated for 48 hrs by sulforhodamine B assay; details: M14, 48 h; for CC50: read-out: LC50 (the source's name)
[4] = Growth inhibition of human SKOV3 cells incubated for 48 hrs by sulforhodamine B assay; details: SK-OV-3, 48 h; for CC50: read-out: LC50 (the source's name)
[5] = Cytotoxicity against human SNB75 cells assessed as cell growth at 10 uM incubated for 48 hrs by sulforhodamine B assay; details: SNB-75, 48 h, read-out: Activity
MCF7 = assay: Growth inhibition of human MCF7 cells incubated for 48 hrs by sulforhodamine B assay; details: MCF7, 48 h; for CC50: read-out: LC50 (the source's name)
NCI-H322M = assay: Growth inhibition of human NCI-H322M cells incubated for 48 hrs by sulforhodamine B assay; details: for CC50: read-out: LC50 (the source's name)
786-0 [6] = assay: Growth inhibition of human 786-0 cells incubated for 48 hrs by sulforhodamine B assay; details: 786-0, 48 h; for CC50: read-out: LC50 (the source's name)
SN12C [7] = assay: Cytotoxicity against human SN12C cells assessed as cell growth at 10 uM incubated for 48 hrs by sulforhodamine B assay; details: read-out: Activity
[8] = Cytotoxicity against human HCT116 cells assessed as cell growth at 10 uM incubated for 48 hrs by sulforhodamine B assay; details: HCT-116, 48 h, read-out: Activity
786-0 [9] = assay: Cytotoxicity against human 786-0 cells assessed as cell growth at 10 uM incubated for 48 hrs by sulforhodamine B assay; details: 786-0, 48 h, read-out: Activity
[10] = Growth inhibition of human HCT116 cells incubated for 48 hrs by sulforhodamine B assay; details: HCT-116, 48 h; for CC50: read-out: LC50 (the source's name)
SK-MEL-5 = assay: Growth inhibition of human SK-MEL-5 cells incubated for 48 hrs by sulforhodamine B assay; details: SK-MEL-5, 48 h; for CC50: read-out: LC50 (the source's name)
[11] = Cytotoxicity against human RPMI8226 cells assessed as cell growth at 10 uM incubated for 48 hrs by sulforhodamine B assay; details: RPMI-8226, 48 h, read-out: Activity
NCI-H460 [12] = assay: Cytotoxicity against human NCI-H460 cells assessed as cell growth at 10 uM incubated for 48 hrs by sulforhodamine B assay; details: NCI-H460, 48 h, read-out: Activity
NCI-H460 [13] = assay: Growth inhibition of human NCI-H460 cells incubated for 48 hrs by sulforhodamine B assay; details: NCI-H460, 48 h; for CC50: read-out: LC50 (the source's name)
[14] = Growth inhibition of human SF539 cells incubated for 48 hrs by sulforhodamine B assay; details: SF-539, 48 h; for CC50: read-out: LC50 (the source's name)
[15] = Growth inhibition of human LOXIMVI cells incubated for 48 hrs by sulforhodamine B assay; details: LOX IMVI; for CC50: read-out: LC50 (the source's name)
[16] = Growth inhibition of human leukemia cells after 48 hrs by sulforhodamine B assay; details: Leukemia cell; for CC50: read-out: LC50 (the source's name)
KM12 [17] = assay: Growth inhibition of human KM12 cells incubated for 48 hrs by sulforhodamine B assay; details: KM12, 48 h; for CC50: read-out: LC50 (the source's name)
[18] = Growth inhibition of human RXF393 cells incubated for 48 hrs by sulforhodamine B assay; details: RXF 393, 48 h; for CC50: read-out: LC50 (the source's name)
[19] = Growth inhibition of human SF268 cells incubated for 48 hrs by sulforhodamine B assay; details: SF-268, 48 h; for CC50: read-out: LC50 (the source's name)
[20] = Cytotoxicity against human SW620 cells assessed as cell growth at 10 uM incubated for 48 hrs by sulforhodamine B assay; details: SW-620, 48 h, read-out: Activity
M14 [21] = assay: Cytotoxicity against human M14 cells assessed as cell growth at 10 uM incubated for 48 hrs by sulforhodamine B assay; details: M14, 48 h, read-out: Activity
SK-MEL-2 = assay: Growth inhibition of human SK-MEL-2 cells incubated for 48 hrs by sulforhodamine B assay; details: SK-MEL-2, 48 h; for CC50: read-out: LC50 (the source's name)
KM12 [22] = assay: Cytotoxicity against human KM12 cells assessed as cell growth at 10 uM incubated for 48 hrs by sulforhodamine B assay; details: KM12, 48 h, read-out: Activity
[23] = Cytotoxicity against human MOLT4 cells assessed as cell growth at 10 uM incubated for 48 hrs by sulforhodamine B assay; details: MOLT-4, 48 h, read-out: Activity
A498 = assay: Cytotoxicity against human A498 cells assessed as cell growth at 10 uM incubated for 48 hrs by sulforhodamine B assay; details: A498, 48 h, read-out: Activity
MDA-MB-468 = assay: Cytotoxicity against human MDA-MB-468 cells assessed as cell growth at 10 uM incubated for 48 hrs by sulforhodamine B assay; details: MDA-MB-468, 48 h, read-out: Activity
[24] = Growth inhibition of human renal cancer cells after 48 hrs by sulforhodamine B assay; details: Cancer cell lines; for CC50: read-out: LC50 (the source's name)
SN12C [25] = assay: Growth inhibition of human SN12C cells incubated for 48 hrs by sulforhodamine B assay; details: for CC50: read-out: LC50 (the source's name)

Cc1cc(=O)oc2c(C)c(O)c(-c3ccnc(N)n3)cc12
growth at 10 µM (U-251): 56.3%
growth at 10 µM (T47D): 53.7%
GI50 [1]: 32.7 µM
TGI [1]: > 100 µM
CC50 [1]: > 100 µM
GI50 (ACHN): 2.39 µM
TGI (ACHN): > 100 µM
CC50 (ACHN): > 100 µM
GI50 [2]: 68.1 µM
TGI [2]: > 100 µM
CC50 [2]: > 100 µM
GI50 (NCI-H522): 20.7 µM
TGI (NCI-H522): > 100 µM
CC50 (NCI-H522): > 100 µM
growth at 10 µM (EKVX): 46.7%
GI50 (M14 [3]): > 100 µM
TGI (M14 [3]): > 100 µM
CC50 (M14 [3]): > 100 µM
GI50 [4]: 28.3 µM
TGI [4]: > 100 µM
CC50 [4]: > 100 µM
growth at 10 µM [5]: 33.8%
GI50 (MCF7): 2.61 µM
TGI (MCF7): > 100 µM
CC50 (MCF7): > 100 µM
GI50 (NCI-H322M): 59 µM
TGI (NCI-H322M): > 100 µM
CC50 (NCI-H322M): > 100 µM
GI50 (786-0 [6]): 29.8 µM
TGI (786-0 [6]): > 100 µM
CC50 (786-0 [6]): > 100 µM
growth at 10 µM (SN12C [7]): 50.8%
growth at 10 µM [8]: 15.8%
growth at 10 µM (786-0 [9]): 62.1%
GI50 [10]: 3.05 µM
TGI [10]: > 100 µM
CC50 [10]: > 100 µM
GI50 (SK-MEL-5): 3.56 µM
TGI (SK-MEL-5): > 100 µM
CC50 (SK-MEL-5): > 100 µM
growth at 10 µM [11]: 30.5%
growth at 10 µM (NCI-H460 [12]): 19.8%
GI50 (NCI-H460 [13]): 2.44 µM
TGI (NCI-H460 [13]): > 100 µM
CC50 (NCI-H460 [13]): > 100 µM
GI50 [14]: 8.33 µM
TGI [14]: > 100 µM
CC50 [14]: > 100 µM
GI50 [15]: 4.44 µM
TGI [15]: > 100 µM
CC50 [15]: > 100 µM
GI50 [16]: 31.9 µM
TGI [16]: > 100 µM
CC50 [16]: > 100 µM
GI50 (KM12 [17]): > 100 µM
TGI (KM12 [17]): > 100 µM
CC50 (KM12 [17]): > 100 µM
GI50 [18]: 4.7 µM
TGI [18]: 59.9 µM
CC50 [18]: > 100 µM
GI50 [19]: 12.3 µM
TGI [19]: > 100 µM
CC50 [19]: > 100 µM
growth at 10 µM [20]: 38.4%
growth at 10 µM (M14 [21]): 68.6%
GI50 (SK-MEL-2): 88.1 µM
TGI (SK-MEL-2): > 100 µM
CC50 (SK-MEL-2): > 100 µM
growth at 10 µM (KM12 [22]): 66.1%
growth at 10 µM [23]: -44.7%
growth at 10 µM (A498): 42.9%
growth at 10 µM (MDA-MB-468): 40.4%
GI50 [24]: 10.6 µM
TGI [24]: > 100 µM
CC50 [24]: > 100 µM
GI50 (SN12C [25]): 29.2 µM
TGI (SN12C [25]): > 100 µM
CC50 (SN12C [25]): > 100 µM

Cc1cc(=O)oc2c(C)c(O)c(-c3cc4ccc(F)cc4[nH]3)cc12
growth at 10 µM (U-251): 27.9%
growth at 10 µM (T47D): 27.2%
GI50 [1]: 5.38 µM
TGI [1]: 16.2 µM
CC50 [1]: 48.1 µM
GI50 (ACHN): 2.64 µM
TGI (ACHN): 10.6 µM
CC50 (ACHN): 74.7 µM
GI50 [2]: 2.64 µM
TGI [2]: 9.71 µM
CC50 [2]: 30.8 µM
GI50 (NCI-H522): 2.78 µM
TGI (NCI-H522): 9.09 µM
CC50 (NCI-H522): 48.9 µM
growth at 10 µM (EKVX): 53.3%
GI50 (M14 [3]): 3.29 µM
TGI (M14 [3]): 12.7 µM
CC50 (M14 [3]): 36.7 µM
GI50 [4]: 2.93 µM
TGI [4]: 13.1 µM
CC50 [4]: 64.9 µM
growth at 10 µM [5]: 68.8%
GI50 (MCF7): 2.57 µM
TGI (MCF7): 16.2 µM
CC50 (MCF7): > 100 µM
GI50 (NCI-H322M): 3.23 µM
TGI (NCI-H322M): 13.1 µM
CC50 (NCI-H322M): 88.3 µM
GI50 (786-0 [6]): 4.1 µM
TGI (786-0 [6]): 14 µM
CC50 (786-0 [6]): 42.6 µM
growth at 10 µM (SN12C [7]): 35.1%
growth at 10 µM [8]: 22.9%
growth at 10 µM (786-0 [9]): 42.2%
GI50 [10]: 2.62 µM
TGI [10]: 9.87 µM
CC50 [10]: 31.5 µM
GI50 (SK-MEL-5): 1.65 µM
TGI (SK-MEL-5): 4.46 µM
CC50 (SK-MEL-5): 14.5 µM
growth at 10 µM [11]: 8.76%
growth at 10 µM (NCI-H460 [12]): 28.4%
GI50 (NCI-H460 [13]): 2.82 µM
TGI (NCI-H460 [13]): 10.5 µM
CC50 (NCI-H460 [13]): 66.6 µM
GI50 [14]: 2.94 µM
TGI [14]: 14.1 µM
CC50 [14]: 59.4 µM
GI50 [15]: 2.51 µM
TGI [15]: 10.6 µM
CC50 [15]: 37.3 µM
GI50 [16]: 3.08 µM
TGI [16]: 19.8 µM
CC50 [16]: > 100 µM
GI50 (KM12 [17]): 3.03 µM
TGI (KM12 [17]): 12.4 µM
CC50 (KM12 [17]): 42 µM
GI50 [18]: 3.91 µM
TGI [18]: 14.7 µM
CC50 [18]: 42.3 µM
GI50 [19]: 3.42 µM
TGI [19]: 15 µM
CC50 [19]: 83.3 µM
growth at 10 µM [20]: 58.6%
growth at 10 µM (M14 [21]): 52.3%
GI50 (SK-MEL-2): 3.12 µM
TGI (SK-MEL-2): 7.34 µM
CC50 (SK-MEL-2): 41.5 µM
growth at 10 µM (KM12 [22]): 33.2%
growth at 10 µM [23]: 36.5%
growth at 10 µM (A498): 52.5%
growth at 10 µM (MDA-MB-468): 16.7%
GI50 [24]: 2.94 µM
TGI [24]: 10.8 µM
CC50 [24]: 43.1 µM
GI50 (SN12C [25]): 3.32 µM
TGI (SN12C [25]): 13 µM
CC50 (SN12C [25]): 48 µM
